Source: patent US10941158B2, “Pyrazole ACC inhibitors and uses thereof” (Gilead Apollo, LLC, priority 2015, dated 2021)
Converted amounts (≈) assume the structure as drawn. Where two headings read alike, the source gives them in different places.

Key:
fungal (fACC2) ACC2 = fungal (fACC2) ACC2 (UniProt Q00955); settings: read-out: fACC2 IC50; fungal ACC2, ADP-Glo
C. albicans ATCC 90028 = assay: Anti-Fungal (Candida) Activity Assay, broth microtiter MIC; format: cell-based; settings: read-out: MIC C. albicans ATCC 90028
How it was run: (§1)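 MIC by visual comparison of challenged wells with growth control, scored at 48 h. Setup: CLSI M27-A3 broth microtiter plates, RPMI 1640+MOPS medium, direct colony suspension from overnight Sabouraud agar cultures (35 °C, 24 h).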

C. krusei ATCC 6258 = assay: as above; format: cell-based; settings: Pichia kudriavzevii, read-out: MIC C. krusei ATCC 6258
How it was run: as §1

[1] = system: C. parapsilosis ATCC 22019; assay: as above; format: cell-based; settings: Lodderomyces parapsilosis, read-out: MIC C. parapsilosis ATCC 22019
How it was run: as §1

[2] = system: Fusarium virguliforme (Fv); assay: Growth inhibition assay of fungal pathogens; format: cell-based; settings: 48 h
How it was run: (§2)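 Liquid-culture assay in which test compounds are applied at three final concentrations (50, 10, 2 ppm or 2, 0.4, 0.08 ppm). Inoculum levels follow 48 h growth curves for each fungus. Growth is monitored by OD600 and by eye, and the 48 h values give % inhibition against DMSO.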

Diplodia maydis (Dm) = assay: Growth inhibition assay of fungal pathogens; format: cell-based; settings: Stenocarpella maydis, 48 h, read-out: Concentration at 90% Inhibition Dm
How it was run: (§3)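 OD600 (blank-subtracted) plus visual scoring at 48 h, vs 2% DMSO ctrl → % inhibition. Final cpd 50/10/2 or 2/0.4/0.08 ppm. Fm/Bc/Dm spores in 17% V8 broth; Rs as 1.5 mm plugs in ¼ PDB.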

Rhizoctonia solani (Rs) = assay: Growth inhibition assay of fungal pathogens; format: cell-based; settings: 48 h, read-out: Concentration at 90% Inhibition Rs
How it was run: as §3

Septoria tritici (St) = assay: Growth inhibition assay of fungal pathogens; format: cell-based; settings: for IC90: Zymoseptoria tritici, read-out: Concentration at 90% Inhibition St
How it was run: as §2

[3] = system: Collectotrichum graminicola (Cg); assay: Growth inhibition assay of fungal pathogens; format: cell-based; settings: 48 h, read-out: Concentration at 90% Inhibition Cg
How it was run: as §2

[4] = system: Fusarium moniliforme (Fm); assay: Growth inhibition assay of fungal pathogens; format: cell-based; settings: for IC90: Fusarium verticillioides, 48 h, read-out: Concentration at 90% Inhibition Fm
How it was run: as §3

Botrtyis cinerea (Bc) = assay: Growth inhibition assay of fungal pathogens; format: cell-based; settings: 48 h, read-out: Concentration at 90% Inhibition Bc
How it was run: as §3

[5] = system: Phytophthora capsici (Pc); assay: Growth inhibition assay of fungal pathogens; format: cell-based; settings: for IC90: Phytophthora capsici, read-out: Concentration at 90% Inhibition Pc
How it was run: as §2

human (hACC2) ACC2 = human (hACC2) ACC2 (Homo sapiens, UniProt O00763); assay: In vitro Acetyl-CoA Carboxylase (ACC) inhibition assay (ADP-Glo), hACC2; format: biochemical
Chain of human (hACC2) ACC2 (O00763 whole entry): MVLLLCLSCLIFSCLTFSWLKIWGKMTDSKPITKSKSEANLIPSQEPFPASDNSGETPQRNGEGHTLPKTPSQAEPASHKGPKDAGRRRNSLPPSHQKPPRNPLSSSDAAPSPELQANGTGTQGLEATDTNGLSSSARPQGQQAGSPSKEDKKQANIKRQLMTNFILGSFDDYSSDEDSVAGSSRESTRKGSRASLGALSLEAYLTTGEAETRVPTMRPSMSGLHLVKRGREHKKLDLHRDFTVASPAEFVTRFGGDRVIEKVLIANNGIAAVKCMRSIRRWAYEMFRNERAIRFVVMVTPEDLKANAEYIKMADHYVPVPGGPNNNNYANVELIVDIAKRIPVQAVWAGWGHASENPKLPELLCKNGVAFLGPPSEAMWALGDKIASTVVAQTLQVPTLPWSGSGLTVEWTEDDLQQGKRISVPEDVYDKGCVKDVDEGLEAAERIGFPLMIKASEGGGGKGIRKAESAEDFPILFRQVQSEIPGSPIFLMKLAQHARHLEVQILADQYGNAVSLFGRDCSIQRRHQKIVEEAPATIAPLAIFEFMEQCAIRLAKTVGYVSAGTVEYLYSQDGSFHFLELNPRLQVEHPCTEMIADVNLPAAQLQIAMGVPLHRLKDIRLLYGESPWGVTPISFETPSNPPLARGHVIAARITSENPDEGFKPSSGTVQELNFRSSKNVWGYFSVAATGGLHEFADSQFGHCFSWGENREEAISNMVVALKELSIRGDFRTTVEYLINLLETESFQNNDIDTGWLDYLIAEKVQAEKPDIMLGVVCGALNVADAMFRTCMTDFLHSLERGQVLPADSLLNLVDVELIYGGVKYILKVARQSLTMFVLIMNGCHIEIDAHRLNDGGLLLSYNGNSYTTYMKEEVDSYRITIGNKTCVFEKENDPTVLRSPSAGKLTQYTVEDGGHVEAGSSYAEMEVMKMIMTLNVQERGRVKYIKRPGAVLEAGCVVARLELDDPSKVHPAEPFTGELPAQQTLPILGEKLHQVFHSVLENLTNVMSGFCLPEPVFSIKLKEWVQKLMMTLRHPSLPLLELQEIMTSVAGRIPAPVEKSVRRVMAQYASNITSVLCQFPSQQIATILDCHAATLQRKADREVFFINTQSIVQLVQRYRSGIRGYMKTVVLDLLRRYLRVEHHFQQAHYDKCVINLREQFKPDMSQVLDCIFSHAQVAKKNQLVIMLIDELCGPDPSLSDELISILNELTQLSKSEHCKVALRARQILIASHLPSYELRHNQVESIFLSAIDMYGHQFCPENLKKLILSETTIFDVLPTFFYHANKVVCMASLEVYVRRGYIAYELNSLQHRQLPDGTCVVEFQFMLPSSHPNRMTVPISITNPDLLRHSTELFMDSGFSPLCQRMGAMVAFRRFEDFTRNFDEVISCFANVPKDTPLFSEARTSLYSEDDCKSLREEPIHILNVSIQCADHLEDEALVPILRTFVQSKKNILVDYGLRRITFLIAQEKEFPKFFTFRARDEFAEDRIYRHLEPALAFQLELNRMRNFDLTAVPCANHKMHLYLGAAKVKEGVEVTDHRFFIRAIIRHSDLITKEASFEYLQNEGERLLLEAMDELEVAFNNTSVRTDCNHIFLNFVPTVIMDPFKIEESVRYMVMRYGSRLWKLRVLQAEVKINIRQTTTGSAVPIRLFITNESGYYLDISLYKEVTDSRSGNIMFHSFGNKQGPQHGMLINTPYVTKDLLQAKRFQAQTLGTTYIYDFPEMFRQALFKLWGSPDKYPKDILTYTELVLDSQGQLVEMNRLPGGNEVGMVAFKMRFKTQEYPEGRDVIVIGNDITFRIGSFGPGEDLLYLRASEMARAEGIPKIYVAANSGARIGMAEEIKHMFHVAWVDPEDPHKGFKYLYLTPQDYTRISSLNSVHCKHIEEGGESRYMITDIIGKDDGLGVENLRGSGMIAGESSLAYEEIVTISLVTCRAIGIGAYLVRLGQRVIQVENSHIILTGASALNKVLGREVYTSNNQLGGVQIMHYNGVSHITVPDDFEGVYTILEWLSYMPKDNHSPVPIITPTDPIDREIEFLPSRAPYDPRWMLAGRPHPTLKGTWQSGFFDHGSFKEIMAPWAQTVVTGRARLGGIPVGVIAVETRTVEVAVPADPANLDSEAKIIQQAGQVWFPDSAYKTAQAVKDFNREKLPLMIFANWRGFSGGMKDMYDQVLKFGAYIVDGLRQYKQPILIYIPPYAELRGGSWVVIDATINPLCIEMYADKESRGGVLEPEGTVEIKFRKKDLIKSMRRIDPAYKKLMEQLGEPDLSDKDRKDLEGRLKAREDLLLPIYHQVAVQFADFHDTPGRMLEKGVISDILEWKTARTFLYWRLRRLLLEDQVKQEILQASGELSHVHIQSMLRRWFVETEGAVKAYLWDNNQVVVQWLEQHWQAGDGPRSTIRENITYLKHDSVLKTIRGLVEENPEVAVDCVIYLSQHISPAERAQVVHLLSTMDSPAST
Procedure: The detailed procedure is as follows. […] 10 μL ADP glo reagent was added. […] 20 μL kinase detection reagent was added.
“NA” stands for “not assayed.”

[6] = ATCC90028, 3 replicates, MIC recorded at 48 h
[7] = ATCC6258, 3 replicates, MIC recorded at 48 h
[8] = ATCC22019, 3 replicates, MIC recorded at 48 h
[9] = read-out: Concentration at 90% Inhibition Fv, Table 4a, 48 hours
[10] = read-out: Concentration at 90% Inhibition Fv, Table 4b, 48 hours

Chain of fungal (fACC2) ACC2 (Q00955 whole entry): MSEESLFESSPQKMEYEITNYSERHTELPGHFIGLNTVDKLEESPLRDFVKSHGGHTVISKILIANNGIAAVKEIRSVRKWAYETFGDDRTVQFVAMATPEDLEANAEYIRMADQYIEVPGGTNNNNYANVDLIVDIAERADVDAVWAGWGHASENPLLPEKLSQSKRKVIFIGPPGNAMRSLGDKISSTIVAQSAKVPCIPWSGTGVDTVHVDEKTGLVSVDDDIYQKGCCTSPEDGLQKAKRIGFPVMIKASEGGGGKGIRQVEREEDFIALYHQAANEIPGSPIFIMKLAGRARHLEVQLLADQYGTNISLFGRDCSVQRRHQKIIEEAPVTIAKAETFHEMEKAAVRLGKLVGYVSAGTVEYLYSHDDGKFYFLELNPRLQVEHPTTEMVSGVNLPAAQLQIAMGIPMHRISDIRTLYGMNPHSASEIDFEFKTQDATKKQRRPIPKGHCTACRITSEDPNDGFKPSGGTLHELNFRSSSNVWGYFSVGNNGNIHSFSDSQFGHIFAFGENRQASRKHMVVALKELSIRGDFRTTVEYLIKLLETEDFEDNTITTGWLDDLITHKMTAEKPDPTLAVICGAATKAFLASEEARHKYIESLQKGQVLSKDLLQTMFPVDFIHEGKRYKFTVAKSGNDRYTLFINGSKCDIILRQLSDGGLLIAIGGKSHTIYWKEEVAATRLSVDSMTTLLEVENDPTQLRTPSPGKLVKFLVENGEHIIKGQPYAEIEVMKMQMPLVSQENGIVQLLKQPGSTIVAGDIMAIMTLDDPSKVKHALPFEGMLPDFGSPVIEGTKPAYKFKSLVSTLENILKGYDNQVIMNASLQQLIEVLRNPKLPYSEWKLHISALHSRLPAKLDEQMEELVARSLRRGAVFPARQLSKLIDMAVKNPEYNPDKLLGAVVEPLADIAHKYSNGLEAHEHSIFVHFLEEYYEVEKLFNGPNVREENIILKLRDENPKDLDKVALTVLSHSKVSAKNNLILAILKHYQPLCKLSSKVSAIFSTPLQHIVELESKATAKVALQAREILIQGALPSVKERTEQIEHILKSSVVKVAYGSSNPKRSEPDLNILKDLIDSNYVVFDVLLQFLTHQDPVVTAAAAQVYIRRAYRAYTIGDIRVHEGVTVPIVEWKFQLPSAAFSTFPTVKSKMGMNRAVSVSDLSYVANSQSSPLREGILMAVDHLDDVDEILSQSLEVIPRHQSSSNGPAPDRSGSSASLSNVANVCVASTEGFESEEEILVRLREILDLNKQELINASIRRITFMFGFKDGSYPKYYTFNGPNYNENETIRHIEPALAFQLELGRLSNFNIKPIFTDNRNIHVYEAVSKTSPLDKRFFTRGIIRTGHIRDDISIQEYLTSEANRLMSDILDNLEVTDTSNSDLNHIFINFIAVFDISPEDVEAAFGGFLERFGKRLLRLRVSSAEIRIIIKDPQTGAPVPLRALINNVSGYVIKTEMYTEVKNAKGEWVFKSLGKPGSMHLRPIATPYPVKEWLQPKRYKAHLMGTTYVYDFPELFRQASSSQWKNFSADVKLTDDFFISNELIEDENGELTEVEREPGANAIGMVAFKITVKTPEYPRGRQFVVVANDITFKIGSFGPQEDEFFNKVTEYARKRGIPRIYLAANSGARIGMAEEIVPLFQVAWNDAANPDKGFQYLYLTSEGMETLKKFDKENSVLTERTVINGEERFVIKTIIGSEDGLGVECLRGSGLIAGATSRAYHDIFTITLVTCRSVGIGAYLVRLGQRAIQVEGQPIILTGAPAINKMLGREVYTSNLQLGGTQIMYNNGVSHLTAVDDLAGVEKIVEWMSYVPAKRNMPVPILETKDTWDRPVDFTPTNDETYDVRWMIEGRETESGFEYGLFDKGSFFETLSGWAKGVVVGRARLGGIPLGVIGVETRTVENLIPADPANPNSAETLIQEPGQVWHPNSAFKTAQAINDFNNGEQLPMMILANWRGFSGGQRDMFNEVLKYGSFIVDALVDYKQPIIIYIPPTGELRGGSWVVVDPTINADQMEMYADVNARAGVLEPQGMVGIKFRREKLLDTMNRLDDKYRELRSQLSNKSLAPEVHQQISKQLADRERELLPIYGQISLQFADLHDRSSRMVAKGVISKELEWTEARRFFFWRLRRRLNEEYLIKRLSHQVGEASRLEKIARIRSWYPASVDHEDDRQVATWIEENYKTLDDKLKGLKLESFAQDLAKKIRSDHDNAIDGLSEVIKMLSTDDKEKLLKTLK

Structure (SMILES)	IC50 (fungal (fACC2) ACC2) [nM]	MIC (C. albicans ATCC 90028; [6]) [mg/L]	MIC (C. krusei ATCC 6258; [7]) [mg/L]	MIC [1, 8] [mg/L]	IC90 (Diplodia maydis (Dm); Table 4a) [mg/L]	IC90 (Diplodia maydis (Dm); Table 4b) [mg/L]	IC90 (Rhizoctonia solani (Rs); Table 4a) [mg/L]	IC90 (Rhizoctonia solani (Rs); Table 4b) [mg/L]	IC90 ([3]; Table 4a) [mg/L]	IC90 ([3]; Table 4b) [mg/L]	IC90 (Botrtyis cinerea (Bc); Table 4a) [mg/L]	IC90 (Botrtyis cinerea (Bc); Table 4b) [mg/L]	IC50 (human (hACC2) ACC2) [nM]	MIC (C. albicans ATCC 90028; ATCC90028, 48 h) [mg/L]	MIC (C. krusei ATCC 6258; ATCC6258, 48 h) [mg/L]	MIC ([1]; ATCC22019, 48 h) [mg/L]	IC90 [2, 9] [mg/L]	IC90 [2, 10] [mg/L]	IC90 (Septoria tritici (St); 48 h, Table 4a) [mg/L]	IC90 (Septoria tritici (St); 48 h, Table 4b) [mg/L]	other results
COc1ccc(F)cc1[C@H](Cn1c(=O)n(C(C)(C)C(=O)NC(C)C)c(=O)c2c(C)c(-n3cccn3)sc21)OC(C)C.I [Compound I-1, (R)-2-(I-(2-(5-fluoro-2-methoxyphenyl)-2-isopropoxyethyl)-5-methyl-2,4-dioxo-6-(1H-pyrazol-1-yl)-1,4-dihydrothieno[2,3-d]pyrimidin-3(2H)-yl)-N-isopropyl-2-methylpropanamide]	0.6 to 3	2.1 to 4	0.25 to 1	2.1 to 4	2	2	2	2	2	2	0.4	0.4	10 to 40	–	–	–	–	–	–	–	IC90 ([2]; Table 4a, 48 hours, read-out: Concentration at 90% Inhibition Fv): 0.4 mg/L; IC90 ([2]; Table 4b, 48 hours, read-out: Concentration at 90% Inhibition Fv): 0.4 mg/L; Concentration at 90% Inhibition St (Septoria tritici (St); Table 4b, 48 hours): D (“D” provided a compound concentration of >50 ppm at 90% inhibition of fungal pathogens); IC90 (Septoria tritici (St); Table 4a, 48 hours): > 50 mg/L; IC90 ([4]; Table 4a, 48 hours): 0.08 mg/L; IC90 ([4]; Table 4b, 48 hours): 0.08 mg/L; IC90 ([5]; Table 4a, 48 hours): > 50 mg/L; Concentration at 90% Inhibition Pc ([5]; Table 4b, 48 hours): D (“D” provided a compound concentration of >50 ppm at 90% inhibition of fungal pathogens)
COc1ccc(F)cc1[C@H](Cn1c(=O)n(C(C)(C)C(=O)N2CCCCC2)c(=O)c2c(C)c(-n3cccn3)sc21)OC(C)C [Compound I-2, (R)-1-(2-(5-fluoro-2-methoxyphenyl)-2-isopropoxyethyl)-5-methyl-3-(2-methyl-1-oxo-1-(piperidin-1-yl)propan-2-yl)-6-(1H-pyrazol-1-yl)thieno[2,3-d]pyrimidine-2,4(1H,3H)-dione]	0.6 to 3	–	–	–	0.4 (≈ 0.654 µM)	0.4 (≈ 0.654 µM)	0.4 (≈ 0.654 µM)	0.4 (≈ 0.654 µM)	2 (≈ 3.27 µM)	2 (≈ 3.27 µM)	0.4 (≈ 0.654 µM)	0.4 (≈ 0.654 µM)	10 to 40	0.25 to 1 (≈ 0.409 to 1.63 µM)	0.25 to 1 (≈ 0.409 to 1.63 µM)	1.1 to 2 (≈ 1.8 to 3.27 µM)	0.4 (≈ 0.654 µM)	0.4 (≈ 0.654 µM)	> 50	> 50	IC90 [4]: 0.08 mg/L (≈ 0.131 µM); Concentration at 90% Inhibition Fm ([4]; Table 4b, 48 hours): AA (“AA” provided a compound concentration of 0.08 ppm at 90% inhibition of fungal pathogens); IC90 ([5]; 48 h, Table 4a): > 50 mg/L; IC90 ([5]; 48 h, Table 4b): > 50 mg/L
COc1ccccc1[C@H](Cn1c(=O)n(C(C)(C)C(=O)N2CCCCC2)c(=O)c2c(C)c(-n3cccn3)sc21)OC1CCOCC1 [Compound I-13, (R)-1-(2-(2-methoxyphenyl)-2-((tetrahydro-2H-pyran-4-yl)oxy)ethyl)-5-methyl-3-(2-methyl-1-oxo-1-(piperidin-1-yl)propan-2-yl)-6-(1H-pyrazol-1-yl)thieno[2,3-d]pyrimidine-2,4(1H,3H)-dione]	0.6 to 3	–	–	–	> 50	10 (≈ 15.7 µM)	> 50	10 (≈ 15.7 µM)	> 50	10 (≈ 15.7 µM)	2 (≈ 3.15 µM)	2 (≈ 3.15 µM)	10 to 40	0.25 to 1 (≈ 0.393 to 1.57 µM)	0.25 to 1 (≈ 0.393 to 1.57 µM)	1.1 to 2 (≈ 1.73 to 3.15 µM)	> 50	10 (≈ 15.7 µM)	> 50	> 50	IC90 [4]: 0.4 mg/L (≈ 0.629 µM); Concentration at 90% Inhibition Fm ([4]; Table 4b, 48 hours): A (“A” provided a compound concentration of 0.4 ppm at 90% inhibition of fungal pathogens); IC90 ([5]; 48 h, Table 4a): > 50 mg/L; IC90 ([5]; 48 h, Table 4b): > 50 mg/L
COCCCO[C@@H](Cn1c(=O)n(C(C)C(=O)N2CCCC2)c(=O)c2c(C)c(-n3cccn3)sc21)c1cc(F)ccc1OC (stereo partly shown) [Compound I-70]	0.6 to 3	> 4.1	> 4.1	> 4.1	–	–	–	–	–	–	–	–	10 to 40	–	–	–	–	–	–	–	–
COc1ccccc1[C@H](Cn1c(=O)n(C(C)(C)C(=O)O)c(=O)c2c(C)c(-n3cccn3)sc21)OC1CCOCC1 [Compound I-71]	0.6 to 3	> 4.1	> 4.1	> 4.1	–	–	–	–	–	–	–	–	10 to 40	–	–	–	–	–	–	–	–
